One data set deals with MDCK cells. The following applies: Previously reported values in MDCK cells, A to B; cited from earlier work.
For data set [1], the system named is KDM5B. The following applies: previously reported value, cited from earlier work.
Another data set has as its target KDM5B (NanoLuc-KDM5B) (Homo sapiens, UniProt Q9UGL1). Nature of the data set: NanoBRET cellular target engagement assay in HEK293 cells. (In general: BRET reads energy transfer from a luciferase to a nearby fluorophore.)
Data set [2] addresses T1, KDM5B (Homo sapiens, UniProt Q9UGL1, A373G/DEL102-140/DEL143-371/Q372G).
T1 construct: A KDM5B construct encoding regions Phe26-Ile770 was amplified from an OriGene cDNA clone; 6x-histidine tag (TEV-cleavable) (N, cleaved yes); made in house; host or cells: Sf9 insect cells (baculovirus)
T1 sequence (Q9UGL1 with tags, fused parts or gaps DEL102-140/DEL143-371/Q372G/A373G): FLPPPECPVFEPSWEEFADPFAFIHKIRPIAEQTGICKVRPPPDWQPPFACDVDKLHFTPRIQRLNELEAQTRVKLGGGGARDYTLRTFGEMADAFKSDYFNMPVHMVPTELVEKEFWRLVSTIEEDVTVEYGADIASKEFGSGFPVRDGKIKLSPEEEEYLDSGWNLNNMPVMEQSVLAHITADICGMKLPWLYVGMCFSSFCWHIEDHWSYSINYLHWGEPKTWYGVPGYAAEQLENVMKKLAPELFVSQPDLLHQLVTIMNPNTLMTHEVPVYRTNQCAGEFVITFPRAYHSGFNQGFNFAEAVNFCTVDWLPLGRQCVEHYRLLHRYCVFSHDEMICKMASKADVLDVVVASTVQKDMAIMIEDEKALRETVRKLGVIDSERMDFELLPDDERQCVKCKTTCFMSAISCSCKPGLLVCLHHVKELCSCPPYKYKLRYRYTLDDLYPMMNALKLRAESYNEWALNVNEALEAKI
The data set can be described thus: KDM5B 2-OG competition assay (AlphaScreen). In kind it is biochemical. The following applies: for IC50: AlphaScreen in vitro activity in KDM5B. As to the method:
(§1) KDM alpha screen selectivity
(§2) Inhibition of histone demethylases was assessed using the histone demethylase AlphaScreen assay (Amplified Luminescence Proximity Homogenous Assay) as previously reported.[4] The basis of this assay for lysine demethylases have been widely described.[5] In brief, the assay was performed in 384-well plate format using white proxiplates (PerkinElmer), and transfer of titrations of compounds (100 nl) was performed using an ECHO 550 acoustic dispenser […]
(§3) Tween- 20) containing the appropriate demethylase enzyme (see Supplementary table 1 for final concentrations) was transferred to each well of a 384-well proxiplate with a Multidrop™ Combi Reagent Dispenser, and the enzymes allowed to pre-incubate for 120 minutes with compound (final concentration of DMSO was 1%). After that time, the enzyme reaction was initiated by addition of 5 µl of a substrate mix consisting of Ketoglutarate (2-OG), Ferrous Ammonium Sulphate (FAS), L-Ascorbic Acid (LAA) and biotinylated peptide substrate (see Supporting table X for final assay concentrations) and the reaction incubated for the indicated time at room temperature. Reaction was stopped by the addition of 5 μl of assay buffer containing EDTA (7.5 mM) and NaCl (400 mM). Streptavidin Donor beads (0.08 mg/ml) and Protein-A conjugated acceptor beads (0.08 mg/ml) (AlphaScreen General IgG detection kit was from Perkin Elmer) were pre-incubated for 1 hour with an antibody to the product methyl mark (Supplementary Table 1) and the presence of biotin-H3-product was detected by addition of 5 µl of the pre-incubated AlphaScreen beads (final concentrations of 0.02 mg/ml with respect to acceptor and donor beads). Detection was allowed to proceed for 2 hour at room temperature and the assay plates read in a BMG Labtech Pherastar FS plate reader (excitation, 680 nm; emission, 570 […]
IC50(t) = Ki (1 + K ) . ( η . k .t − 1) (1)
KDM5B 2-OG competition assay
2-OG competition assay were performed as described for the general KDM5B AlphaScreen method above, varying the 2-OG concentrations from a range of 1mM to 0.5 μM. Data were normalized to the no enzyme control and the IC50 determined from the nonlinear regression curve fit using GraphPad Prism 7.

The target of data set [3] is T2, KDM5B (Homo sapiens, UniProt Q9UGL1).
T2 sequence (Q9UGL1 26-101 limits assumed): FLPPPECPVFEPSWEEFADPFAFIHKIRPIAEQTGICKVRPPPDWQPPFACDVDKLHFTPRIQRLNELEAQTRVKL
T2 sequence (Q9UGL1 374-770 limits assumed): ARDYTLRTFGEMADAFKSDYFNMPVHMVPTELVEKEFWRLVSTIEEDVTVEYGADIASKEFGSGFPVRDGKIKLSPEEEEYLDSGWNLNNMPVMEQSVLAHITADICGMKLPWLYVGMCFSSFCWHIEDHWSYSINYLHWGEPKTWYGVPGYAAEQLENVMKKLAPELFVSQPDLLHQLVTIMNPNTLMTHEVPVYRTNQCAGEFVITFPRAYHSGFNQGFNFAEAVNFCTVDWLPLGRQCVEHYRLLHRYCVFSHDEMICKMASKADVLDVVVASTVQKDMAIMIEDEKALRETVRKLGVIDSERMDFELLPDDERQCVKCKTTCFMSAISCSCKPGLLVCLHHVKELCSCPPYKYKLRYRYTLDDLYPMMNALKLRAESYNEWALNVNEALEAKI
The data set can be described thus: Timecourse KDM5B AlphaScreen inhibition and kinact/Ki calculation. Type of data set: biochemical. On the procedure: These parameters were calculated by using an established method to derive K i and k inact directly from time‐dependant IC50 values (Table S1). […]
as §1, §2
as §3, with “570 nm). Data were normalized to the no enzyme control and the IC50 determined from the nonlinear regression curve fit” for “570”
Timecourse KDM5B inhibition and Kinact/Ki calculations
The timecourse alphascreen assay was performed using the conditions described in the AlphaScreen section for KDM5B but with different pre-incubation times (from 0 to 120 min) for the enzyme with compound. Data were normalized to the no enzyme control and the IC50 for each timepoint was determined from the nonlinear regression curve fit using GraphPad Prism 7. The Ki and kinact were calculated through a least squares fit of the obtained IC50 at the different timepoints into the equation below which was derived by Krippendorff et al.[6] S is the H3K4me3 peptide substrate concentration of 0.1 µM and KM is the Michaelis-Menten constant for the substrate of 0.5 µM. XLFit software was used to compute the values of Ki and kinact. […]

Data set [4] concerns the target T1, KDM5B. Nature of the data set: Covalent binding by MS (RapidFire intact mass, peptide mapping), KDM5B.
A short description of a further data set: Caco-2 permeability. Conditions: human, Caco-2, Caco‐2 cells, A to B. In kind it is in vitro ADME.

Marks after values point to notes of the source that are not given here.

The term IC50 denotes the midpoint of a concentration-inhibition curve. Broadly, the Ki is the dissociation constant of the complex between target and ligand, obtained from inhibition or displacement. Usually kinact stands for the rate constant of inactivation at saturating inhibitor. For orientation: kinact/KI means the second-order rate constant of inactivation. For orientation: Papp A→B means how fast a substance crosses the layer from the apical side. A higher Papp A→B goes with fast passage.

Sequence of KDM5B (NanoLuc-KDM5B) (Q9UGL1 whole entry): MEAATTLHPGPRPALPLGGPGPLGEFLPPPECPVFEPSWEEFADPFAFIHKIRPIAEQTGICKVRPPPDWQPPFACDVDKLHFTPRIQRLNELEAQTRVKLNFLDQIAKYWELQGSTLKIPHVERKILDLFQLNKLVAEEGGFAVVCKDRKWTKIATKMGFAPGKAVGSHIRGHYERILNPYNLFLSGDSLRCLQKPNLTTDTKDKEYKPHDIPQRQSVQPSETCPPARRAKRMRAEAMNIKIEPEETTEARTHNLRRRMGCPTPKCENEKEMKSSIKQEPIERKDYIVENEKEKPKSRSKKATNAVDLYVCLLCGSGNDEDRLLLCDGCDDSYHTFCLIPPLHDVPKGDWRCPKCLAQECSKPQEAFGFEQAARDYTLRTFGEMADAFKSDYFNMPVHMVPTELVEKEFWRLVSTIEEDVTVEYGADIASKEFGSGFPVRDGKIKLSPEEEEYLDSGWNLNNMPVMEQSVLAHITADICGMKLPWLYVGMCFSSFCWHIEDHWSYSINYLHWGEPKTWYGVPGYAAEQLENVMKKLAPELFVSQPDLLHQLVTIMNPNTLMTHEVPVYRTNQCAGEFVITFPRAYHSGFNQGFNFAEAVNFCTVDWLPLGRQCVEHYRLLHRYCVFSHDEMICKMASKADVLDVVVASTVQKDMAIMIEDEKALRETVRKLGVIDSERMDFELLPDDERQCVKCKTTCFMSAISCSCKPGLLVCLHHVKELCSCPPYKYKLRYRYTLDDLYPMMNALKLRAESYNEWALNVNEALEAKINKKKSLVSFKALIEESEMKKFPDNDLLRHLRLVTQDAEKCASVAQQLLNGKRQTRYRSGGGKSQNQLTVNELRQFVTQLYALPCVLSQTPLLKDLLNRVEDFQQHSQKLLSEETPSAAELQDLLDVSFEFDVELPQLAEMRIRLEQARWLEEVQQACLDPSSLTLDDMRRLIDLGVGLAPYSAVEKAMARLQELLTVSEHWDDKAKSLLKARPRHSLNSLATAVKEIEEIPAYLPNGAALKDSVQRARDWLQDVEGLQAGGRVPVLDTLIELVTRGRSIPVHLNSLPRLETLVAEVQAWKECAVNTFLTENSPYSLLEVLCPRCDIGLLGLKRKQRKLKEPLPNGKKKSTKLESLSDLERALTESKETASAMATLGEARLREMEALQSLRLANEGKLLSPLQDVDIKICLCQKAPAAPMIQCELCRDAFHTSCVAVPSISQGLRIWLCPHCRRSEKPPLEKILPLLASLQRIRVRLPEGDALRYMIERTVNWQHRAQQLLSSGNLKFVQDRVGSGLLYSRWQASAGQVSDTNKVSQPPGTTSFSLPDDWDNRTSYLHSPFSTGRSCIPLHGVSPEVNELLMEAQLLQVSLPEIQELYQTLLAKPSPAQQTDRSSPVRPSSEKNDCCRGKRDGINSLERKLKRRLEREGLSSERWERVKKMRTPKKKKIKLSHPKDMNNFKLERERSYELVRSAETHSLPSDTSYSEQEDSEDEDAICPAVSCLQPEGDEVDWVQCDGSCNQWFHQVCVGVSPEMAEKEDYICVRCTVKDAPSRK

For `CC(C)c1c(-c2ccccc2)[nH]c2c(C#N)cnn2c1=O` [CPI‐455], the P app with MDCK cells is 17.2^[c] 10^−6 cm s^−1. In addition, the “2‐OG shift” value in the data set on KDM5B [1] is 2.0^[c]. For the same compound, the IC50 in the data set on KDM5B [1] (read-out: IC50 (2‐OG 1 μM), KDM5B) is 3 nM; against KDM5B (NanoLuc-KDM5B) it was 400 nM.

In the case of `CC(C)c1c(-c2cnn(C(C)(C)C)c2)[nH]c2c(C#N)cnn2c1=O` [Compound 1, reference compound], the P app in the data set with MDCK cells is 7.5^[c] 10^−6 cm s^−1. Also, the “drop in potency with 2-OG concentration” value on KDM5B [2] (2-OG from 0.5 μM up to 1000 μM) came to 8 fold. Also, the IC50 at KDM5B [2] (IC50 (2‐OG 1 μM), 2-OG 1 μM) was 15 nM; on KDM5B [2] (IC50 (2‐OG 1 mM), 2-OG 1 mM), 377 nM; at KDM5B (NanoLuc-KDM5B), 340 nM.

`C=CC(=O)N1CCN(CCc2cnn(-c3nccc4c(=O)[nH]cnc34)c2)CC1` [Compound 3]: on KDM5B [3], the Ki is 834 ± 79 nM, the “k inact/K i” value is 1400 M⁻¹ s⁻¹ and the kinact is 0.0012 ± 1.3e-05 s⁻¹. The kinact/KI on KDM5B [3] (Table S1) is 1400 ± 20 M⁻¹ s⁻¹. This compound gave an IC50 at KDM5B [2] (IC50 (2‐OG 1 μM), 2-OG 1 μM) of 184 nM. Moreover, the “inhibitor reactive residue in KDM5B (peptide mapping, LCMS/MS)” value on KDM5B [4] (digestion of protein–inhibitor adduct) is listed as “binding specifically to the desired C480”. Also, the “covalent binding to KDM5B by intact MS” value at KDM5B [4] (protein 1 μM, compound 10 μM, 2 hours, 37 °C) is “major peak relating to protein–inhibitor adduct”. Moreover, at KDM5B (NanoLuc-KDM5B), the IC50 was more than 30000 nM. The same compound had a Papp A→B in “Caco-2 permeability” of less than 1.5 ×10⁻⁶ cm/s.

Source of the values: paper PMC6391970, “Design, Synthesis and Characterization of Covalent KDM5 Inhibitors” (Angewandte Chemie (International Ed. in English), 2018).
